Ends that are not written are not given here.
What was measured:
Malassezia furfur [1] = assay: Inhibition of Malassezia furfur growth test (optical density and colony-forming units), Examples 1 and 2; assay type: cell-based; conditions: for colony-forming units: 10 μl plated out
Protocol: Growth medium: M472-Pitysporum medium according to DSMZ
(§1) The components were sterilized at 121° C., 1 bar superatmospheric pressure for 20 minutes.
2 g/l of olive oil were sterilized by filtration and, after autoclaving, added to the other components.
Since it was a two-phase medium, the complete medium was treated with sonication in order to enlarge the phase boundary.
For agar plates, if appropriate, […] of agar agar were added to the medium.
The growth test was carried out as follows: A shake flask with M472-Pitysporum medium was inoculated with M. furfur and incubated with shaking overnight at 30° C. and 200 rpm.
A 96-well microtiter plate was filled with in each case 100 μl of M472-Pitysporum medium and inoculated with M. furfur suspension of the overnight culture. The M. furfur suspension was adjusted at the start of the experiment to an optical density, measured at 620 nm, of 0.02. The concentrates of the inhibitor solutions were 1 mM in water or DMSO.
The growth of the following batches was compared by measuring the optical density:
M. furfur suspension without the addition of an inhibitor.
This was to exclude that an inhibition is attributable merely to the effect of the DMSO, or a false positive result being observed.
M. furfur suspension and addition of an aqueous P18 solution with a final concentration of 25 μM.
M. furfur suspension and addition of a P18 solution in DMSO with a final concentration of 25 μM.
M. furfur suspension and addition of a zinc pyrithione (ZPT, Sigma-Aldrich) solution in DMSO with a final concentration of 25 μM.
M. furfur suspension and addition of a Ketoconazole (Sigma-Aldrich) solution in DMSO with a final concentration of 25 μM.
The microtiter plate was incubated with shaking at 30° C.
[…] The colony-forming units (CFU) were then determined by plating out 10 μl from each of the suspensions and, after incubation for 6 days, counting the colonies. The CFU was determined in order to exclude an influence of the two-phase medium and also the growth form of M. furfur on the optical density. […] The experiments were carried out at least in triple determinations and independently repeated.
For this, the procedure was as described in Example 1. 1 mM stock solutions of the fusion peptide P18, magainin 2 and cecropin A in DMSO were prepared. The final concentrations of the peptides in the growth experiments were 25 μM. The same amount of DMSO was likewise added to the suspension without inhibitor in order to exclude a growth-inhibiting effect of the DMSO.
(§2) The growth of the following mixtures was compared by measuring the optical density:
This was to exclude that an inhibition is attributable merely to the effect of the DMSO.
M. furfur suspension and addition of a magainin 2 solution in DMSO with a final concentration of 25 μM.
M. furfur suspension and addition of a cecropin A solution in DMSO with a final concentration of 25 μM.
M. furfur suspension and addition of a peptide P18 (SEQ ID NO3) solution in DMSO with a final concentration of 25 μM.

E. coli cells = assay: Biodegradability of P18: chymotrypsin digestion, then antimicrobial activity on E. coli cells; assay type: cell-based, Escherichia coli; conditions: for optical density at 620 nm in two independent experiments: aqueous P18 solution 10 μM, undigested, cell gives both experiments
Protocol: Firstly, the peptide P18 was digested by adding chymotrypsin (from bovine pancreas, Sigma). For this, a 1 mM P18 solution was prepared and treated in accordance with the manufacturer's instructions. The samples were incubated for 16 hours at 37° C. The negative control used was a sample of a P18 solution without addition of chymotrypsin or a control solution which comprised only chymotrypsin, but no P18. The antimicrobial activity of P18 on E. coli cells was then investigated. The test was carried out as described in Example 3.
as §2
E. coli suspension without the addition of an inhibitor.
E. coli suspension and addition of an aqueous P18 solution with a final concentration of 10 μM. The P18 solution had been stored beforehand for 16 hours at 37° C.
E. coli suspension and addition of an aqueous P18 solution with a final concentration of 10 μM. The P18 solution had been stored beforehand in accordance with the manufacturer's instructions for 16 hours at 37° C. and treated with chymotrypsin.
E. coli suspension and addition of an aqueous chymotrypsin solution which comprised, as control, the same amount of chymotrypsin as the P18 solution which was digested with chymotrypsin. This solution too had been stored beforehand for 16 hours at 37° C. This mixture was chosen in order to exclude an antimicrobial effect of the chymotrypsin.
The growth was observed over a period of 16 hours by measuring the optical density.

Malassezia furfur [2] = assay: Long-term stability of P18 in shampoo basic formulations (40° C.) tested on M. furfur, CFU; assay type: cell-based; conditions: stored at 40° C., 0; 12 and 22 days
Protocol: Long-term stability of the peptide P18 (H-KWKLFKKIPKFLHLAKKF-NH2; carboxy-terminal end amidated) in shampoo basic formulations was tested.
The following shampoo basic formulations were prepared:
The components Texapon NSO and Tego Betain L7 were mixed and dissolved. The pH was adjusted to pH 6-7 with NaOH. In the following, 100 mM of aqueous P18 peptide solution were prepared. A corresponding volume of 100 mM P18 peptide solution was added to each formulation in order to obtain peptide P18 final concentrations as indicated in table 15.
The formulations were stored at 40° C.
After 0; 12 and 22 days, the effect of the formulations against M. furfur was analyzed.
Growth medium: M472-Pityrosporum medium according to DSMZ
as §1
2 g/L of olive oil (sterilized by filtration and, after autoclaving, added to the other components) […]
A 96-well microtiter plate was filled with in each case 100 μl of M472-Pityrosporum medium and inoculated with M. furfur suspension of the overnight culture. The M. furfur suspension was adjusted at the start of the experiment to an optical density, measured at 600 nm, of 0.1. […]
After 24 hours, the colony-forming units (CFU) were determined. For this, 1 μl and 10 μl were plated out from each of the suspensions and, after incubation for 6 days, the colonies were counted.

[3] = aqueous solution, 25 μM, incubation time 16 h
[4] = aqueous solution, 25 μM, incubation time 24 h
[5] = aqueous solution, 25 μM, incubation time 40 h
[6] = solution in DMSO, 25 μM, incubation time 16 h
[7] = solution in DMSO, 25 μM, incubation time 24 h
[8] = solution in DMSO, 25 μM, incubation time 40 h

With “KWKLFKKIPKFLHLAKKF-NH2 [P18, KWKLFKKIPKFLHLAKKF-NH2]” the “inhibition of the growth of M. furfur compared to magainin 2 or cecropin A” value (Malassezia furfur [1]; 25 μM in DMSO) was “more effectively than magainin 2 or cecropin A alone”, the “growth of M. furfur (in words)” value (Malassezia furfur [1]; 25 μM, observed time period up to 40 hours) was “effectively inhibited” and the optical density (Malassezia furfur [1]; aqueous solution, 25 μM, incubation time 0 h) was 0. The optical density (Malassezia furfur [1]; [3]) was 0, the colony-forming units (Malassezia furfur [1]; [3]) was 62 and the optical density (Malassezia furfur [1]; [4]) was 0. For the same substance, the colony-forming units (Malassezia furfur [1]; [4]) was 41, the optical density (Malassezia furfur [1]; [5]) was 0 and the colony-forming units (Malassezia furfur [1]; [5]) was 120. The optical density (Malassezia furfur [1]; solution in DMSO, 25 μM, incubation time 0 h) was 0, the optical density (Malassezia furfur [1]; [6]) was 0 and the colony-forming units (Malassezia furfur [1]; [6]) was 8. For the same substance, the optical density (Malassezia furfur [1]; [7]) was 0, the colony-forming units (Malassezia furfur [1]; [7]) was 0 and the optical density (Malassezia furfur [1]; [8]) was 0. The colony-forming units (Malassezia furfur [1]; [8]) was 0, the CFU (Malassezia furfur [1]; solution in DMSO, 25 μM, incubation time 64 h) was 0 and the CFU (Malassezia furfur [1]; solution in DMSO, 25 μM, incubation time 72 h) was 23. The “optical density at 620 nm in two independent experiments” value (E. coli cells; incubation time 0 h) was 0-0, the “optical density at 620 nm in two independent experiments” value (E. coli cells; incubation time 16 h) was 0.01-0.09 and the “biodegradability (protease digestion)” value (E. coli cells; chymotrypsin, 16 hours at 37° C.) was “digestion of P18 with a serine protease, such as, for example, chymotrypsin, is possible”. The “long-term stability in shampoo basic formulations (in words)” value (Malassezia furfur [2]) was “stable characteristics”.
